Assay results reported in patent US12414267B2, “Fluorinated aromatics and methods of using same” (3M INNOVATIVE PROPERTIES COMPANY, priority 2019, dated 2025).

Test: Log Kow (octanol/water partition coefficient) by HPLC, OECD Test Method 117
Assay type: physicochemical
Conditions: OECD 117
Procedure: Values of Log Kow (octanol/water partition coefficients) were determined by HPLC using the method described in Organization for Economic Cooperation and Development (OECD) Test Method 117, “Partition Coefficient (n-octanol/water), HPLC Method.”

## FC(F)(F)C(=C(Oc1cccc(C(F)(F)F)c1)C(F)(F)C(F)(F)F)C(F)(F)F [Example 7, 1-((1,1,1,4,4,5,5,5-Octafluoro-2-(trifluoromethyl)pent-2-en-3-yl)oxy)-3-(trifluoromethyl)benzene]
  Log Kow: 6.1

## F/C(=C(/C(F)(F)F)C(F)(Oc1ccccc1)C(F)(F)C(F)(F)F)C(F)(C(F)(F)F)C(F)(F)F (stereo not drawn) [Example 4, (E)-((1,1,1,2,2,3,5,6,7,7,7-Undecafluoro-4,6-bis(trifluoromethyl)hept-4-en-3-yl)oxy)benzene+isomers]
  Log Kow: >6.4

## Fc1c(F)c(F)c(OC(=C(C(F)(F)F)C(F)(F)F)C(F)(F)C(F)(F)F)c(F)c1F [Example 1, 1,2,3,4,5-Pentafluoro-6-[3,3,3-trifluoro-1-(1,1,2,2,2-pentafluoroethyl)-2-(trifluoromethyl)prop-1-enoxy]benzene]
  Log Kow: 6.1

## FC(F)(F)C(=C(Oc1ccccc1)C(F)(F)C(F)(F)F)C(F)(F)F [Example 5, ((1,1,1,4,4,5,5,5-Octafluoro-2-(trifluoromethyl)pent-2-en-3-yl)oxy)benzene]
  Log Kow: 5.5

## F/C(=C(/C(F)(F)F)C(F)(Oc1c(F)c(F)c(F)c(F)c1F)C(F)(F)C(F)(F)F)C(F)(C(F)(F)F)C(F)(F)F (stereo not drawn) [Example 3, (E)-1,2,3,4,5-Pentafluoro-6-((1,1,1,2,2,3,5,6,7,7,7-undecafluoro-4,6-bis(trifluoromethyl)hept-4-en-3-yl)oxy)benzene]
  Log Kow: >6.4

## F/C(Oc1c(F)c(F)c(F)c(F)c1F)=C(/F)C(F)(F)F [Example 2, (E)-1,2,3,4,5-Pentafluoro-6-((perfluoroprop-1-en-1-yl)oxy)benzene]
  Log Kow: 4.7
